Consider 18 molecules from patent US10815183B2, “Substituted aromatic compounds and pharmaceutical uses thereof” (PROMETIC PHARMA SMT LIMITED, priority 2009, dated 2020).

One data set concerns bone marrow cells. Briefly: Chemoprotection studies: bone marrow and blood cell counts in cyclophosphamide immunosuppressed mice (hematopoiesis/erythropoiesis). The format is in vivo, C57BL/6 mice. As to conditions: for In Vivo Results: effect on hematopoiesis/erythropoiesis: degree of activity compared to the activity of compound I; for Red Blood Cells (10^9) / Red Bone Marrow Cells (10^6): mice, cyclophosphamide 200 mg/kg iv day 0, compound oral pre-treatment day -3, -2, -1, sacrifice day +5. The procedure: Female C57BL/6 mice, 6 to 8 week old, were immunosuppressed by treatment with 200 mg/kg of cyclophosphamide administered intravenously at day 0. To examine the immunoprotective effect of compound I, mice were pre-treated orally at day −3, −2 and −1 with the compound. Mice were sacrificed at day +5 by cardiac puncture and cervical dislocation. Then, a gross pathological observation of the femurs (as a source of bone marrow cells) was recorded. After the sacrifice, tissues were crushed in PBS buffer and cells were counted on a hemacytometer.
Additional compounds related to compound I were also prepared and tested for biological activity.

The next data set concerns CTGF. Format: in vivo, C57Bl/6 mice. The note with it: pre-treatment, doxorubicin-treated mice (FIG. 12). The procedure: (§1) C57Bl/6 mice (6-10 week-old) were treated with Compound I prophylacticly from day −3 to day 10 or treated therapeutically from day 1 to 10. Nephrotoxicity was induced by an intravenous injection of 10 mg/kg of doxorubicin at day 0. Serum albumin and creatinine were monitored at days 4, 7, 9 and 11.

Data set [1] in a line: Kidney protection in 5/6 nephrectomized (Nx) rat model, GFR (creatinine clearance). Format: in vivo, Wistar rats. From the text: (§2) Male 6 week-old Wistar rats were subjected to ⅚ nephrectomy or sham operations. Under fluothane anesthesia, renal ablation was achieved by removing two-thirds of the left kidney followed by a right unilateral nephrectomy 7 days later. Sham rats underwent exposition of the kidneys and removal of the perirenal fat. Twenty-one days after the first operation, rats were randomized in the study by their reduced glomerular filtration rate (GFR) of creatinine indicating a dysfunction of the kidney. Animals that underwent the sham operation were given vehicle (saline) and were used as controls. Nx animals were divided in groups receiving the vehicle or Compound I. Saline or Compound I was given by gastric gavage once daily up to the sacrifice. GFR was measured every three weeks in order to assess the severity of this end-stage renal disease model. Rats were sacrificed at day 190.

Data set [2] in a line: Doxorubicin-induced nephrotoxicity model: serum albumin, serum creatinine, histological kidney lesions. The format is in vivo, C57Bl/6 mice. As to conditions: for serum creatinine increase induced by doxorubicin: mice (FIG. 9). The procedure:
as §1
Doxorubicin is well known to induce nephro- and cardiotoxicity. FIG. 10 represents the histological kidney lesions score as determined by histochemistry in the doxorubicin-induced nephrotoxicity model.
Doxorubicin induces early lesions primarily at the tubular region. Toxicity is further extended to the glomerulus (around day 11 post-doxorubicin). FIG. 11 represents the histological micrographs of doxorubicin-induced lesions in control and Compound I-treated (prophylactic treatment) mice. Doxorubicin induces kidney cell apoptosis, fibrosis, sclerosis and accumulation of proteins in affected tubular regions.

For another data set, the system named is TGF-β. Put plainly: TGF-β mRNA expression in kidneys from doxorubicin-treated mice. Format: in vivo, C57Bl/6 mice. The procedure:
as §1
CTGF is also regulated by TGF-β. FIG. 13 illustrates the mRNA expression of TGF-β in kidneys. Doxorubicin increases by 73% the mRNA expression of TGF-β in kidneys. Pre-treatment with Compound I induces a 26% decrease of TGF-β expression.

A short description of data set [3]: Heart protection in 5/6 nephrectomized rats, blood pressure. The format is in vivo. The note with it: Nx rats (FIG. 7).
Text: as §2

Another data set has as its system PGE2. Put plainly: LPS-induced inflammation in the rat air-pouch model, PGE2 in pouch exudates by ELISA. Format: in vivo, Lewis rats. The text has this: LPS-induced inflammation in the rat air-pouch model is believed to mimic the pathological process occurring in joint diseases such as arthritis. This is because the connective tissues formed along the air pouch are similar to those found in chronic joint diseases. LPS-induced inflammation and chronic joint diseases share other features, including markedly elevated PGE2, neutrophil infiltration, cytokine formation, and tissue damage.
An air cavity was produced at day −6 by subcutaneous injection of 20 ml of sterile air into the […] area of the back of male Lewis rats (175-200 g). An additional 10 ml of air was injected into the cavity at day −3 to keep the space open. At day 0, compounds were administered intravenously and one hour later lipopolysaccharide (LPS: 2.5 ml, 2 μg/ml in PBS) was injected into the pouch to produce an inflammatory reaction. Two hours after treatment with LPS, animals were euthanized by CO2 asphyxiation and 5 ml of PBS/heparin (10 U/ml)/indomethacin (36 μg/ml) was injected into the pouch. The pouch fluid was collected and PGE2 was determined in the pouch exudates by ELISA.
(In general: ELISA stands for enzyme-linked immunosorbent assay.)

Consider `CCCCCc1cccc(C(C)C(=O)[O-])c1.[Na+]` (stereo not drawn) [Compound VIII, Sodium Salt of 2-(3-pentylphenyl)propionic Acid], for which the “In Vivo Results: effect on hematopoiesis/erythropoiesis” value in the data set with bone marrow cells is recorded as “++ (++ designates 40-70% of compound I activity)”.

On to `O=P1(N(CCCl)CCCl)NCCCO1` (stereo not drawn) [Cyclophosphamide, reference compound], for which, in the data set on bone marrow cells, the “Red Blood Cells (10^9)” value is 5.7 10^9 and the “Red Bone Marrow Cells (10^6)” value is on record as 8.1 10^6.

In the case of `CCCCCc1ccc(C(=O)[O-])cc1.[Na+]` [Compound XII, Sodium Salt of 4-Pentylbenzoic Acid], the “In Vivo Results: effect on hematopoiesis/erythropoiesis” value in the data set on bone marrow cells is given as “++ (++ designates 40-70% of compound I activity)”.

For `CCCCCc1cc(O)cc(CC(=O)[O-])c1.[Na+]` [Compound XI, Sodium Salt of [3-Hydroxy-5-pentylphenyl]acetic acid], the “In Vivo Results: effect on hematopoiesis/erythropoiesis” value in the data set on bone marrow cells is reported as “++++ (++++ designates greater activity than compound I)”.

Consider `CCCCCc1cccc(CCC(=O)[O-])c1.[Na+]` [Compound V, Sodium Salt of 3-(3-pentylphenyl)propionic Acid], for which the “In Vivo Results: effect on hematopoiesis/erythropoiesis” value in the data set on bone marrow cells is listed as “++ (++ designates 40-70% of compound I activity)”.

With `CCCCCc1cccc(C(CO)C(=O)[O-])c1.[Na+]` (stereo not drawn) [Compound VII, Sodium Salt of 3-Hydroxy-2-(3-pentyl-phenyl)propionic Acid], the “In Vivo Results: effect on hematopoiesis/erythropoiesis” value with bone marrow cells is on record as “+++ (+++ designates 70 to 100% of compound I activity)”.

Take `CCCC/C=C/c1cccc(CC(=O)[O-])c1.[Na+]` [XV]: in the data set with bone marrow cells, the “In Vivo Results: effect on hematopoiesis/erythropoiesis” value was “++ (++ designates 40-70% of compound I activity)”.

In the case of `CCCCc1ccc2c(c1)CC(C(=O)[O-])C2.[Na+]` (stereo not drawn) [Compound XIV, Sodium Salt of 5-Butylindan-2-carboxylc Acid], in the data set on bone marrow cells, the “In Vivo Results: effect on hematopoiesis/erythropoiesis” value is reported as “++ (++ designates 40-70% of compound I activity)”.

In the case of `CCC/C=C/c1cccc(CC(=O)[O-])c1.[Na+]` [Compound II, Sodium Salt of E-(3-pent-1-enyl-phenyl)acetic Acid], the “In Vivo Results: effect on hematopoiesis/erythropoiesis” value with bone marrow cells is recorded as “+++ (+++ designates 70 to 100% of compound I activity)”.

For `CCCCCc1cccc(CC(=O)[O-])c1.[Na+]` [Compound I, Sodium Salt of 3-Pentylphenylacetic Acid], the “CTGF expression in kidneys” value with CTGF is given as “significant decrease”. For the same molecule, in data set [1] (Nx rats over treatment period, Nx control 50% deterioration (FIG. 6)), the “improvement of GFR compared to initial GFR (before treatment) at day 21” value stood at 50%. Also, the “improvement of GFR (creatinine clearance)” value in data set [1] (Nx rats, gastric gavage once daily, day 190 (FIG. 5)) is “two-fold”. In addition, in data set [2] (prophylactic (pre-doxorubicin) and therapeutic (post-doxorubicin) treatments (FIG. 10)), the “histological kidney lesions at the tubular level induced by doxorubicin” value is given as “reduce the kidney lesions”. Also, in data set [2] (prophylactic or therapeutic treatment (FIG. 11)), the “protection of the kidney against doxorubicin toxicity (histological micrographs)” value is given as “protects the kidney”. The “serum albumin decrease induced by doxorubicin” value in data set [2] (prophylactic treatment day -3 to day 10, oral, mice (FIG. 8)) is recorded as “inhibits the decrease”. In data set [2] (prophylactic treatment day -3 to day 10, oral), the “serum creatinine increase induced by doxorubicin” value is on record as “inhibits the increase”. The “serum albumin level induced by doxorubicin” value in data set [2] (therapeutic treatment day 1 to 10, oral, mice (FIG. 8)) is given as “no effect”. Besides, the “serum creatinine increase induced by doxorubicin” value in data set [2] (therapeutic treatment day 1 to 10, oral) was “inhibits the increase”. Further, the “decrease of TGF-β expression in kidneys” value with TGF-β (pre-treatment, doxorubicin-treated mice (FIG. 13)) is 26%. In addition, the “circulating red blood cells (in words)” value with bone marrow cells (cyclophosphamide immunosuppressed mice) is on record as “increases”. Besides, in the data set with bone marrow cells, the “In Vivo Results: effect on hematopoiesis/erythropoiesis” value was “+++ (+++ designates 70 to 100% of compound I activity)”, the “Red Blood Cells (10^9)” value is listed as 7.0 10^9 and the “Red Bone Marrow Cells (10^6)” value was 11.5 10^6. The “red bone marrow cell count (in words)” value with bone marrow cells (oral pre-treatment, cyclophosphamide immunosuppressed mice) is given as “increase”. In the data set with bone marrow cells (oral pre-treatment, cyclophosphamide immunosuppressed mice (FIG. 2)), the “white bone marrow cell count” value is “increase”. The “total bone marrow cell count” value with bone marrow cells (oral pre-treatment, cyclophosphamide treated mice (FIG. 1)) is “significant increase”. Besides, the blood pressure result in data set [3] is recorded as “significant decrease”. In addition, the “inhibition of PGE2 compared with positive control indomethacin” value with PGE2 (two hours after LPS) is recorded as “similar”. In addition, in the data set on PGE2 (two hours after administration of LPS (FIG. 3)), the “inhibition of PGE2” value is “significant inhibition”.

Turning to `C/C=C\CCc1cccc(CC(=O)[O-])c1.[Na+]` [Compound X, Sodium Salt of E/Z-(3-Pent-3-enylphenyl)acetic Acid], in the data set with bone marrow cells, the “In Vivo Results: effect on hematopoiesis/erythropoiesis” value is reported as “+++ (+++ designates 70 to 100% of compound I activity)”.

Turning to `COc1cccc2c1C(=O)c1c(O)c3c(c(O)c1C2=O)C[C@@](O)(C(=O)CO)C[C@@H]3O[C@H]1C[C@H](N)[C@H](O)[C@H](C)O1` [Doxorubicin, reference compound], the “histological kidney lesions induced” value in data set [2] (doxorubicin 10 mg/kg iv day 0, mice, day 7 and 11) was “significant kidney lesions”. Moreover, the “increase of mRNA expression of TGF-β in kidneys” value in the data set on TGF-β (doxorubicin 10 mg/kg iv, mice) was 73%.

As for `CCCCCCc1cccc(C(=O)[O-])c1.[Na+]` [Compound XIII, Sodium Salt of 3-Hexylbenzoic Acid], the “In Vivo Results: effect on hematopoiesis/erythropoiesis” value in the data set with bone marrow cells is on record as “+++ (+++ designates 70 to 100% of compound I activity)”.

Take `CCCCCc1cccc(C(C)(C)C(=O)[O-])c1.[Na+]` [Compound VI, Sodium Salt of 2-Methyl-2-(3-pentylphenyl)propionic Acid]: the “In Vivo Results: effect on hematopoiesis/erythropoiesis” value with bone marrow cells is recorded as “++ (++ designates 40-70% of compound I activity)”.

For the molecule `CCCCCc1ccc(O)c(CC(=O)[O-])c1.[Na+]` [Compound III, Sodium salt of (2-hydroxy-5-pentylphenyl)acetic Acid], the “In Vivo Results: effect on hematopoiesis/erythropoiesis” value with bone marrow cells was “+ (+ designates 5-40% of compound I activity)”.

Consider `CCCCCc1cc(CCC(=O)[O-])ccc1F.[Na+]` [Compound IV, Sodium Salt of 3-(4-fluoro-3-pentylphenyl)propionic Acid], for which, in the data set with bone marrow cells, the “In Vivo Results: effect on hematopoiesis/erythropoiesis” value is listed as “+++ (+++ designates 70 to 100% of compound I activity)”.

Take `CCCCCc1cccc(CC(=O)[O-])n1.[Na+]` [XVI]: in the data set with bone marrow cells, the “In Vivo Results: effect on hematopoiesis/erythropoiesis” value is reported as “++ (++ designates 40-70% of compound I activity)”.

In the case of `CCCCc1cccc(CCC(=O)[O-])c1.[Na+]` [Compound IX, Sodium Salt of 3-(3-butylphenyl)propionic Acid], the “In Vivo Results: effect on hematopoiesis/erythropoiesis” value in the data set with bone marrow cells is reported as “++ (++ designates 40-70% of compound I activity)”.
